Source: ChEMBL document CHEMBL1142994, “Structure-based design, synthesis, and biological evaluation of potent and selective macrocyclic checkpoint kinase 1 inhibitors” (J Med Chem, 2007)

Assays:
[1] = biological target: T1, Serine/threonine-protein kinase Chk1 (Homo sapiens, UniProt O14757); test: Inhibition of recombinant Chk1
T1 sequence (O14757 whole entry): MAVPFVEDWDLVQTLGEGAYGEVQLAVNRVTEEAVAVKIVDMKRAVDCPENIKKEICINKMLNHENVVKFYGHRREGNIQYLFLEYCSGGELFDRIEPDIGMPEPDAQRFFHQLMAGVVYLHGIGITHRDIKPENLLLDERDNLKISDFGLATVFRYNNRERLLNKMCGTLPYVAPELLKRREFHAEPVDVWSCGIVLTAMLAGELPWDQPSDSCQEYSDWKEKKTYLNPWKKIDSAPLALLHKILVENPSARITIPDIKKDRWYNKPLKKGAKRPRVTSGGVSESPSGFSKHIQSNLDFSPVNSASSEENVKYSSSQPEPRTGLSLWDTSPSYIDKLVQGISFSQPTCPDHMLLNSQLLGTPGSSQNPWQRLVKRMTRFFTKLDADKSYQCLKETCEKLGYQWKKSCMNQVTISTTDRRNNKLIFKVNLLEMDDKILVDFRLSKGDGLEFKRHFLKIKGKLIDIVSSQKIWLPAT

HeLa [2] = test: Cytotoxicity against HeLa cells by MTS assay; format: functional, cell-based, Homo sapiens
HeLa [3] = test: Cytotoxicity against HeLa cells in presence of doxorubicin by MTS assay; format: functional, cell-based, Homo sapiens
NCI-H1299 [4] = test: Inhibition of accumulation of H1299 cells in G2/M phase in presence of doxorubicin by FACS assay; format: functional, cell-based, Homo sapiens
NCI-H1299 [5] = test: Accumulation of H1299 cells in G2/M phase measured as cell cycle arrest by FACS assay; format: functional, cell-based, Homo sapiens
[6] = biological target: T2, Mitogen-activated protein kinase 13 (Homo sapiens, UniProt O15264); test: Inhibition of p38 delta
T2 sequence (O15264 whole entry): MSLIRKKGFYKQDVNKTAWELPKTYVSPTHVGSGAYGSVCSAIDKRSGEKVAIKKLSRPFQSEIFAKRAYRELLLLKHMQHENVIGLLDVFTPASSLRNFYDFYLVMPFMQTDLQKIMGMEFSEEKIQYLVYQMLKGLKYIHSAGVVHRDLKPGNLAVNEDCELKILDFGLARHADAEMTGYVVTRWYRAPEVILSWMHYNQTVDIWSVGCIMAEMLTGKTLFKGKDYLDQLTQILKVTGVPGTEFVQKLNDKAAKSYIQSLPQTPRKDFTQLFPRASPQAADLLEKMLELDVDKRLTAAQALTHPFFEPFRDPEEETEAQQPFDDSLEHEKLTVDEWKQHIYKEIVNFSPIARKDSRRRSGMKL

[7] = biological target: T3, Serine/threonine-protein kinase Sgk1 (Homo sapiens, UniProt O00141); test: Inhibition of SGK
T3 sequence (O00141 whole entry): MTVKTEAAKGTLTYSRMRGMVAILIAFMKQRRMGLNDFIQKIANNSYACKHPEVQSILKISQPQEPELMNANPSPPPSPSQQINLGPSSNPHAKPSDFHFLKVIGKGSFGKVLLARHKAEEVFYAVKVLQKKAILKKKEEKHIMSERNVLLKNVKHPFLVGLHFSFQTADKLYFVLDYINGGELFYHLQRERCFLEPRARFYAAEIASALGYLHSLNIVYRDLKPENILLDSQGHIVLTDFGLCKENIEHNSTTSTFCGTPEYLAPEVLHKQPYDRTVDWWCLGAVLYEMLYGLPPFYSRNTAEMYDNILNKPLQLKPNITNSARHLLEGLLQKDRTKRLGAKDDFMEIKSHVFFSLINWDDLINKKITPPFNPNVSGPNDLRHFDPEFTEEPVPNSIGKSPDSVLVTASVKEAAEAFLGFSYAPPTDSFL

[8] = biological target: T4, Calcium/calmodulin-dependent protein kinase type IV (Homo sapiens, UniProt Q16566); test: Inhibition of Camk4
T4 sequence (Q16566 whole entry): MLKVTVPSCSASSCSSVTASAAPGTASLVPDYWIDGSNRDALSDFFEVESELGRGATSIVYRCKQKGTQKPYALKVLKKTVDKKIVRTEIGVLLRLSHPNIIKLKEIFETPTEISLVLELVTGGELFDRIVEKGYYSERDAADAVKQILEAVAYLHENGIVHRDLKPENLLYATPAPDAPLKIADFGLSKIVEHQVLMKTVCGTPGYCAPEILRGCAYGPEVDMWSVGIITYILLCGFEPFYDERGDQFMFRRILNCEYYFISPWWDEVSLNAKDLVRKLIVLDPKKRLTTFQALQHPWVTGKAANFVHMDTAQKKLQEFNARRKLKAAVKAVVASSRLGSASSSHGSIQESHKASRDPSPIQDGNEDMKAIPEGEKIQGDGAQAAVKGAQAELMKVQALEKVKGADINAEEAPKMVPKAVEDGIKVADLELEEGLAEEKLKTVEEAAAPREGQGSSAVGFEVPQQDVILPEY

[9] = Homo sapiens, HeLa, read-out: EC50

CC(C)CCOc1cc2c(cc1Cl)NC(=O)Nc1cnc(C#N)c(n1)OCCCCCO2
IC50 [1]: 1060 nM

CCN(CC)c1cc2c(cc1Cl)NC(=O)Nc1cnc(C#N)c(n1)OCCCCCO2
IC50 [1]: 248 nM

N#Cc1ncc2nc1OCCCCCOc1cc(N)c(Cl)cc1NC(=O)N2
IC50 [1]: 3 nM | EC50 (HeLa [2]; [9]): > 59 µM | EC50 (HeLa [3]; Homo sapiens, HeLa): 430 nM | EC50 (NCI-H1299 [4]; Homo sapiens, NCI-H1299): 240 nM | EC50 (NCI-H1299 [5]; Homo sapiens, NCI-H1299): 7.6 µM

CN(C)c1cc2c(cc1Cl)NC(=O)Nc1cnc(C#N)c(n1)OCCCCCO2
IC50 [1]: 7 nM

CC(C)Nc1cc2c(cc1Cl)NC(=O)Nc1cnc(C#N)c(n1)OCCCCCO2
IC50 [1]: 11 nM

CCN(CC)CC#Cc1cc2c(cc1Cl)NC(=O)Nc1cnc(C#N)c(n1)OCCCCCO2
IC50 [1]: 2 nM

CS(=O)(=O)Nc1cc2c(cc1Cl)NC(=O)Nc1cnc(C#N)c(n1)OCCCCCO2
Ki [6]: > 10 µM | EC50 (HeLa [2]; [9]): > 59 µM | EC50 (HeLa [3]; Homo sapiens, HeLa): 2700 nM | EC50 (NCI-H1299 [4]; Homo sapiens, NCI-H1299): 1600 nM | Ki [7]: > 10 µM | Ki [8]: > 10 µM | EC50 (NCI-H1299 [5]; Homo sapiens, NCI-H1299): > 10 µM

N#Cc1ncc2nc1OCCCCCOc1cc(NCc3ccsc3)c(Cl)cc1NC(=O)N2
IC50 [1]: 162 nM

CC(=O)Nc1cc2c(cc1Cl)NC(=O)Nc1cnc(C#N)c(n1)OCCCCCO2
IC50 [1]: 7 nM

N#Cc1ncc2nc1OCCCCCOc1cc(OCCCN)c(Cl)cc1NC(=O)N2
IC50 [1]: 1 nM

N#Cc1ncc2nc1OCCCCCOc1cc(OCCn3ccnc3)c(Cl)cc1NC(=O)N2
IC50 [1]: 3 nM

N#Cc1ncc2nc1OCCCCCOc1ccc(Cl)cc1NC(=O)N2
IC50 [1]: 7 nM | EC50 (HeLa [2]): 57.6 µM | EC50 (HeLa [3]; Homo sapiens, HeLa): 3040 nM | EC50 (NCI-H1299 [4]; Homo sapiens, NCI-H1299): 2700 nM | EC50 (NCI-H1299 [5]; Homo sapiens, NCI-H1299): > 10 µM

N#Cc1ncc2nc1OCCCCCOc1cc(N(CCO)CCO)c(Cl)cc1NC(=O)N2
IC50 [1]: 4 nM

N#Cc1ncc2nc1OCCCCCOc1cc(NCc3cncs3)c(Cl)cc1NC(=O)N2
IC50 [1]: 6 nM | EC50 (HeLa [2]; [9]): > 59 µM | EC50 (HeLa [3]; Homo sapiens, HeLa): 1200 nM | EC50 (NCI-H1299 [4]; Homo sapiens, NCI-H1299): 110 nM | EC50 (NCI-H1299 [5]; Homo sapiens, NCI-H1299): > 10 µM

CN(C)CC(=O)Nc1cc2c(cc1Cl)NC(=O)Nc1cnc(C#N)c(n1)OCCCCCO2
IC50 [1]: 1 nM

N#Cc1ncc2nc1OCCCCCOc1cc(CC(O)CO)c(Cl)cc1NC(=O)N2 (stereo not drawn)
IC50 [1]: 5 nM

N#Cc1ncc2nc1OCCCCCOc1cc(OCCO)c(Cl)cc1NC(=O)N2
EC50 (HeLa [2]; [9]): > 59 µM | EC50 (HeLa [3]; Homo sapiens, HeLa): 3010 nM | EC50 (NCI-H1299 [4]; Homo sapiens, NCI-H1299): 700 nM | EC50 (NCI-H1299 [5]; Homo sapiens, NCI-H1299): > 10 µM

CC(C)(O)C#Cc1cc2c(cc1Cl)NC(=O)Nc1cnc(C#N)c(n1)OCCCCCO2
IC50 [1]: 109 nM

N#Cc1ncc2nc1OCCCCCOc1cc(OCc3ccncc3)c(Cl)cc1NC(=O)N2
IC50 [1]: 12 nM

N#Cc1ncc2nc1OCCCCCOc1cc(CCCO)c(Cl)cc1NC(=O)N2
EC50 (HeLa [2]; [9]): 28.7 µM | EC50 (HeLa [3]; Homo sapiens, HeLa): 860 nM | EC50 (NCI-H1299 [4]; Homo sapiens, NCI-H1299): 190 nM | Ki [7]: > 10 µM | Ki [8]: > 10 µM | EC50 (NCI-H1299 [5]; Homo sapiens, NCI-H1299): > 10 µM

CC(C)CCCOc1cc2c(cc1Cl)NC(=O)Nc1cnc(C#N)c(n1)OCCCCCO2
IC50 [1]: > 10000 nM

N#Cc1ncc2nc1OCCCCCOc1cc(NCCO)c(Cl)cc1NC(=O)N2
IC50 [1]: 2 nM

N#Cc1ncc2nc1OCCCCCOc1cc(OCCCO)c(Cl)cc1NC(=O)N2
Ki [6]: > 10 µM | Ki [7]: > 10 µM | Ki [8]: > 10 µM

O=C1Nc2cncc(n2)OCCCCCOc2ccc(Cl)cc2N1
IC50 [1]: 10 nM | EC50 (HeLa [2]): >59 µM | EC50 (HeLa [3]; Homo sapiens, HeLa): 37800 nM | EC50 (NCI-H1299 [4]; Homo sapiens, NCI-H1299): 7500 nM | EC50 (NCI-H1299 [5]; Homo sapiens, NCI-H1299): > 10 µM

N#Cc1ncc2nc1OCCCCCOc1cc(OCc3ccccn3)c(Cl)cc1NC(=O)N2
IC50 [1]: 63 nM

Cn1cncc1CNc1cc2c(cc1Cl)NC(=O)Nc1cnc(C#N)c(n1)OCCCCCO2
IC50 [1]: 2 nM

N#Cc1ncc2nc1OCCCCOc1ccc(Cl)cc1NC(=O)N2
IC50 [1]: 6 nM | EC50 (HeLa [2]): 57.6 µM | EC50 (HeLa [3]; Homo sapiens, HeLa): 3080 nM | EC50 (NCI-H1299 [5]; Homo sapiens, NCI-H1299): > 10 µM

CN(C)CCOc1cc2c(cc1Cl)NC(=O)Nc1cnc(C#N)c(n1)OCCCCCO2
IC50 [1]: 1 nM

N#Cc1ncc2nc1OCCCCCOc1cc(NCc3cnco3)c(Cl)cc1NC(=O)N2
IC50 [1]: 7 nM

CCCCNc1cc2c(cc1Cl)NC(=O)Nc1cnc(C#N)c(n1)OCCCCCO2
IC50 [1]: 15 nM

CCNc1cc2c(cc1Cl)NC(=O)Nc1cnc(C#N)c(n1)OCCCCCO2
IC50 [1]: 4 nM

CC(O)C#Cc1cc2c(cc1Cl)NC(=O)Nc1cnc(C#N)c(n1)OCCCCCO2 (stereo not drawn)
IC50 [1]: 26 nM

N#Cc1ncc2nc1OCCCCCOc1cc(NC(=O)CCNC3CCCC3)c(Cl)cc1NC(=O)N2
IC50 [1]: 2 nM

COCCOc1cc2c(cc1Cl)NC(=O)Nc1cnc(C#N)c(n1)OCCCCCO2
IC50 [1]: 5 nM

N#Cc1ncc2nc1OCCCCCOc1cc(NCc3c[nH]cn3)c(Cl)cc1NC(=O)N2
IC50 [1]: 231 nM

N#Cc1ncc2nc1OCCCCCOc1cc(NCc3ccncc3)c(Cl)cc1NC(=O)N2
IC50 [1]: 13 nM | EC50 (HeLa [2]; hela, read-out: EC50): > 59 µM | EC50 (HeLa [3]; hela): 1400 nM | EC50 (NCI-H1299 [4]; nci-h1299): 1200 nM | EC50 (NCI-H1299 [5]; nci-h1299): > 10 µM

CNc1cc2c(cc1Cl)NC(=O)Nc1cnc(C#N)c(n1)OCCCCCO2
IC50 [1]: 2 nM

N#Cc1ncc2nc1OCCCCCOc1cc(NCc3cccnc3)c(Cl)cc1NC(=O)N2
IC50 [1]: 12 nM | EC50 (HeLa [2]; hela, read-out: EC50): > 59 µM | EC50 (HeLa [3]; hela): 1600 nM | EC50 (NCI-H1299 [4]; nci-h1299): 330 nM | EC50 (NCI-H1299 [5]; nci-h1299): > 10 µM

CC(C)CNc1cc2c(cc1Cl)NC(=O)Nc1cnc(C#N)c(n1)OCCCCCO2
IC50 [1]: 17 nM

N#Cc1ncc2nc1OCCCCCOc1cc(N3CCCCC3)c(Cl)cc1NC(=O)N2
IC50 [1]: 139 nM

CCOc1cc2c(cc1Cl)NC(=O)Nc1cnc(C#N)c(n1)OCCCCCO2
IC50 [1]: 6 nM

N#Cc1ncc2nc1OCCCCCCOc1ccc(Cl)cc1NC(=O)N2
IC50 [1]: 28 nM

CC(C)Oc1cc2c(cc1Cl)NC(=O)Nc1cnc(C#N)c(n1)OCCCCCO2
IC50 [1]: 13 nM

N#Cc1ncc2nc1OCCCCCOc1cc(O)c(Cl)cc1NC(=O)N2
IC50 [1]: 6 nM | EC50 (HeLa [2]; [9]): > 59 µM | EC50 (HeLa [3]; Homo sapiens, HeLa): 1900 nM

N#Cc1ncc2nc1OCCCCCOc1cc(NCc3ccccc3)c(Cl)cc1NC(=O)N2
IC50 [1]: 266 nM

N#Cc1ncc2nc1OCCCCCOc1cc(OCc3cccnc3)c(Cl)cc1NC(=O)N2
IC50 [1]: 9 nM

N#Cc1ncc2nc1OCCCCCOc1cc(C#CCO)c(Cl)cc1NC(=O)N2
IC50 [1]: 10 nM

COCCOCCOc1cc2c(cc1Cl)NC(=O)Nc1cnc(C#N)c(n1)OCCCCCO2
IC50 [1]: 9 nM
